# Experimental data taken from the supplement of paper PMC10307832.
# Compound: CO[C@@H]1[C@H](N(C)C(=O)c2ccccc2)C[C@H]2O[C@]1(C)n1c3ccccc3c3c4c(c5c6ccccc6n2c5c31)C(=O)NC4 [Midostaurin] + Nc1nc2[nH]cc(CCc3ccc(C(=O)N[C@@H](CCC(=O)O)C(=O)O)cc3)c2c(=O)[nH]1 [Pemetrexed] (partner 0.2 µM)
# Assay: relative viability (nuclei count vs DMSO), 5 days (fraction); higher = more cells survive
# Settings: first compound 0.1 µM
# In short: (§1)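 After 5 days of treatment, lung cancer cells in 1536-well plates were fixed and stained in a single step (final 0.05% Triton X-100, 1% formaldehyde, 1 ug/ml Hoechst) and their nuclei counted on 4× images. Treatment had been applied by pin tool the day after seeding as one drug alone or as a fixed anchor-drug dose with five library-drug doses (not always all listed) in √10 steps. Relative viability is the nuclei count of treated wells divided by that of vehicle wells, and values are medians of duplicate plates.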
row,Cell Line,relative viability
1,NCI-H3122,0.201
2,NCI-H1437,0.332

# Same assay, conditions: first compound 0.3162 µM
row,Cell Line,relative viability
1,LOU-NH91,0.397
2,ChaGo-K-1,0.277
3,NCI-H2405,1.27
4,HOP-62,0.41
5,LU99A,0.224
6,BEN,0.752
7,HARA,0.239
8,HCC-78,0.865
9,NCI-H322M,0.677
10,LCLC-97TM1,0.166
11,NCI-H2009,1.06
12,A-427,1.08
13,NCI-H441,0.254
14,NCI-H661,0.904
15,NCI-H1734,0.456
16,NCI-H460,0.0626

row,Cell Line,relative viability
1,NCI-H2347,0.405
2,SK-LU-1,0.794
3,201T,0.32
4,NCI-H1915,0.477
5,HCC-827,0.255
6,LXF-289,0.896
7,NCI-H23,0.458
8,NCI-H647,0.112
9,CAL-12T,0.765
10,NCI-H1651,0.675
11,EPLC-272H,0.256
12,NCI-H2228,0.334
13,NCI-H1355,1.09
14,NCI-H3122,0.19
15,NCI-H1437,0.323

# Compound: COc1cc(-c2nn([C@H]3CC[C@H](N4CCN(C(C)=O)CC4)CC3)c3ncnc(N)c23)ccc1NC(=O)c1cc2ccccc2n1C + Cc1nc(Nc2ncc(C(=O)Nc3c(C)cccc3Cl)s2)cc(N2CCN(CCO)CC2)n1 [Dasatinib] (partner 0.075 µM)
# Assay: as above
# Settings: first compound 0.0128 µM
# In short: as §1
row,Cell Line,relative viability
1,LOU-NH91,0.557
2,ChaGo-K-1,0.693
3,NCI-H2405,0.252
4,HOP-62,0.704
5,LU99A,0.541
6,BEN,0.251
7,HARA,0.259
8,HCC-78,0.375
9,NCI-H322M,0.262
10,LCLC-97TM1,0.97
11,NCI-H2009,0.298
12,A-427,0.744
13,NCI-H441,0.628
14,NCI-H661,0.923
15,NCI-H1734,0.429
16,NCI-H460,0.526

row,Cell Line,relative viability
1,NCI-H2347,0.262
2,SK-LU-1,0.201
3,201T,0.617
4,NCI-H1915,0.313
5,HCC-827,0.311
6,LXF-289,0.291
7,NCI-H23,0.736
8,NCI-H647,0.155
9,CAL-12T,0.418
10,NCI-H1651,0.426
11,EPLC-272H,0.407
12,NCI-H2228,0.474
13,NCI-H1355,0.834
14,NCI-H3122,0.854
15,NCI-H1437,0.428

# Same assay, conditions: first compound 0.04048 µM
row,Cell Line,relative viability
1,LOU-NH91,0.545
2,ChaGo-K-1,0.62
3,NCI-H2405,0.216
4,HOP-62,0.514
5,LU99A,0.541
6,BEN,0.32
7,HARA,0.21
8,HCC-78,0.401
9,NCI-H322M,0.256
10,LCLC-97TM1,0.348
11,NCI-H2009,0.267
12,NCI-H441,0.463
13,NCI-H661,0.765
14,NCI-H1734,0.599
15,NCI-H460,0.386
16,SK-LU-1,0.236
17,201T,0.511
18,NCI-H1915,0.278
19,HCC-827,0.313
20,LXF-289,0.314
21,NCI-H23,0.469
22,NCI-H647,0.227
23,CAL-12T,0.252
24,NCI-H1651,0.568
25,NCI-H2228,0.436
26,NCI-H1355,0.798
27,NCI-H1437,0.437

# Same assay, conditions: first compound 0.128 µM
row,Cell Line,relative viability
1,LOU-NH91,0.531
2,ChaGo-K-1,0.568
3,NCI-H2405,0.192
4,HOP-62,0.632
5,LU99A,0.634
6,BEN,0.351
7,HARA,0.269
8,HCC-78,0.234
9,NCI-H322M,0.234
10,LCLC-97TM1,0.789
11,NCI-H2009,0.31
12,A-427,0.65
13,NCI-H441,0.657
14,NCI-H661,0.829
15,NCI-H1734,0.531
16,NCI-H460,0.475

row,Cell Line,relative viability
1,NCI-H2347,0.333
2,SK-LU-1,0.211
3,201T,0.537
4,NCI-H1915,0.271
5,HCC-827,0.281
6,LXF-289,0.237
7,NCI-H23,0.778
8,NCI-H647,0.164
9,CAL-12T,0.487
10,NCI-H1651,0.432
11,EPLC-272H,0.391
12,NCI-H2228,0.52
13,NCI-H1355,0.719
14,NCI-H3122,0.775
15,NCI-H1437,0.439

# Same assay, conditions: first compound 1.28 µM
row,Cell Line,relative viability
1,LOU-NH91,0.54
2,ChaGo-K-1,0.621
3,NCI-H2405,0.179
4,HOP-62,0.765
5,LU99A,0.556
6,BEN,0.318
7,HARA,0.236
8,HCC-78,0.24
9,NCI-H322M,0.253
10,LCLC-97TM1,0.697
11,NCI-H2009,0.382
12,A-427,0.856
13,NCI-H441,0.536
14,NCI-H661,0.94
15,NCI-H1734,0.516
16,NCI-H460,0.507

row,Cell Line,relative viability
1,NCI-H2347,0.308
2,SK-LU-1,0.243
3,201T,0.448
4,NCI-H1915,0.333
5,HCC-827,0.275
6,LXF-289,0.227
7,NCI-H23,0.741
8,NCI-H647,0.203
9,CAL-12T,0.436
10,NCI-H1651,0.458
11,EPLC-272H,0.347
12,NCI-H2228,0.456
13,NCI-H1355,0.884
14,NCI-H3122,0.809
15,NCI-H1437,0.302
